Laboratory results taken from ChEMBL document CHEMBL5143618, “Design, synthesis, and antitumor activity evaluation of novel acyl sulfonamide spirodienones” (Bioorg Med Chem, 2022).

Key:
HeLa = assay: cells; assay type: functional, cell-based; conditions: Homo sapiens, 74 h
Description: Antiproliferative activity against human HeLa cells assessed as inhibition of cell growth measured after 74 hrs by SRB assay

MDA-MB-231 [1] = assay: cells; assay type: functional, cell-based; conditions: Homo sapiens, MDA-MB-231, 74 h
Description: Antiproliferative activity against human MDA-MB-231 cells assessed as inhibition of cell growth measured after 74 hrs by SRB assay

HepG2 = assay: Antiproliferative activity against human HepG2 cells assessed as inhibition of cell growth measured after 74 hrs by SRB assay; assay type: functional, cell-based; conditions: HepG2, 74 h
A549 = assay: cells; assay type: functional, cell-based; conditions: Homo sapiens, A549, 74 h
Description: Antiproliferative activity against human A549 cells assessed as inhibition of cell growth measured after 74 hrs by SRB assay

[2] = biological target: 72 kDa type IV collagenase (Homo sapiens, UniProt P08253); assay: Inhibition of MMP2 (unknown origin) using Mca-PLGLDpaAR fluorescent substrate incubated for 2 hrs by microplate reader method
Chain of 72 kDa type IV collagenase (P08253 whole entry): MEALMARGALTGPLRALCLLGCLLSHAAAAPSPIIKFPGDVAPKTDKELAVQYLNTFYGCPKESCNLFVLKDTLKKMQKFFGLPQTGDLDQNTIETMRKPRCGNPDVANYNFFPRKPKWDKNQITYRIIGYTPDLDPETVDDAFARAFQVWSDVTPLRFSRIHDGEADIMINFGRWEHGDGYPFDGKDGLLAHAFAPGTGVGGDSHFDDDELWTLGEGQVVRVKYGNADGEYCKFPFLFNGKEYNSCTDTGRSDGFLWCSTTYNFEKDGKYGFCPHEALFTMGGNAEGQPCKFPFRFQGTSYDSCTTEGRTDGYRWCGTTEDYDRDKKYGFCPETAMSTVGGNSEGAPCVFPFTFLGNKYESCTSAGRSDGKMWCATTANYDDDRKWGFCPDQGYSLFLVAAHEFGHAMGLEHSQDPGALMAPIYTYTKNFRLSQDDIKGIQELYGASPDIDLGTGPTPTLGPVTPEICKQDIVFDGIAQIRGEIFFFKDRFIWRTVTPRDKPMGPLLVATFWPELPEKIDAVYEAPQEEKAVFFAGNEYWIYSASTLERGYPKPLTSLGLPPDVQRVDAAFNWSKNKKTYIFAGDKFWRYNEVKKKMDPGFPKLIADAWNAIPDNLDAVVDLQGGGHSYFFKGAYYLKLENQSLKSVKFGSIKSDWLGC

MDA-MB-231 [3] = assay: Induction of apoptosis in human MDA-MB-231 cells assessed as early apoptotic cells at 10 uM incubated for 24 hrs by annexin V-FITC and PI staining based flow cytometry analysis (reference value: 4.66 %); assay type: functional
MDA-MB-231 [4] = assay: Induction of apoptosis in human MDA-MB-231 cells assessed as viable cells at 10 uM incubated for 24 hrs by annexin V-FITC and PI staining based flow cytometry analysis (reference value: 93.6 %); assay type: functional; conditions: read-out: Activity
MDA-MB-231 [5] = assay: Induction of cell cycle arrest in human MDA-MB-231 cells assessed as accumulation of cells in G1 phase at 10 uM incubated for 24 hrs by PI staining based flow cytometry analysis (reference value: 74.44 %); assay type: functional
MDA-MB-231 [6] = assay: Induction of cell cycle arrest in human MDA-MB-231 cells assessed as accumulation of cells in G2 phase at 10 uM incubated for 24 hrs by PI staining based flow cytometry analysis (reference value: 8.95 %); assay type: functional
MDA-MB-231 [7] = assay: Induction of cell cycle arrest in human MDA-MB-231 cells assessed as accumulation of cells in G2/G1 phase at 10 uM incubated for 24 hrs by PI staining based flow cytometry analysis (reference value: 1.80 %); assay type: functional
MDA-MB-231 [8] = assay: Induction of apoptosis in human MDA-MB-231 cells assessed as late apoptotic cells at 10 uM incubated for 24 hrs by annexin V-FITC and PI staining based flow cytometry analysis (reference value: 1.02 %); assay type: functional
MDA-MB-231 [9] = assay: Induction of cell cycle arrest in human MDA-MB-231 cells assessed as accumulation of cells in S phase at 10 uM incubated for 24 hrs by PI staining based flow cytometry analysis (reference value: 16.61 %); assay type: functional
MDA-MB-231 [10] = assay: Induction of apoptosis in human MDA-MB-231 cells assessed as necrotic cells at 10 uM incubated for 24 hrs by annexin V-FITC and PI staining based flow cytometry analysis (reference value: 0.68 %); assay type: functional

| IC50 (HeLa) [nM] | IC50 (MDA-MB-231 [1]) [nM] | IC50 (HepG2) [nM] | IC50 (A549) [nM] | SMILES | also measured |
| --- | --- | --- | --- | --- | --- |
| > 10000 | > 10000 | > 10000 | > 10000 | O=C1C=CC2(C=C1)OCC(=O)N2S(=O)(=O)c1ccccc1 |  |
| > 10000 | > 10000 | > 10000 | 40 | O=C1C=CC2(C=C1)OCC(=O)N2S(=O)(=O)c1ccc(OC(F)(F)F)cc1 |  |
| 3420 | 20 | > 10000 | > 10000 | O=C1C=CC2(C=C1)OCC(=O)N2S(=O)(=O)c1cccs1 |  |
| 20 | > 10000 | 590 | > 10000 | O=C1C=CC2(C=C1)OCC(=O)N2S(=O)(=O)c1ccccc1C(F)(F)F |  |
| > 10000 | > 10000 | > 10000 | > 10000 | O=C1C=CC2(C=C1)OCC(=O)N2S(=O)(=O)c1ccc([N+](=O)[O-])cc1 |  |
|  |  |  |  | COc1ccc(S(=O)(=O)N(CC(=O)NO)CC(C)C)cc1 | IC50 [2]: 0.59 nM |
| 180 | > 10000 | > 10000 | 1910 | N#Cc1cccc(S(=O)(=O)N2C(=O)COC23C=CC(=O)C=C3)c1 |  |
| 3720 | > 10000 | 750 | > 10000 | Cc1ccccc1S(=O)(=O)N1C(=O)COC12C=CC(=O)C=C2 |  |
| 880 | > 10000 | > 10000 | 5 | O=C1C=CC2(C=C1)OCC(=O)N2S(=O)(=O)c1ccc(N2CCCC2=O)cc1 |  |
| 30 | > 10000 | > 10000 | 50 | O=C1C=CC2(C=C1)OCC(=O)N2S(=O)(=O)c1ccc(F)c(F)c1 |  |
| > 10000 | 1100 | 540 | > 10000 | Cc1ccc(S(=O)(=O)N2C(=O)C(C)OC23C=CC(=O)C=C3)cc1 (configuration not stated) |  |
| 30 | > 10000 | 240 | 50 | O=C1C=CC2(C=C1)OCC(=O)N2S(=O)(=O)c1ccc(Br)s1 |  |
| 570 | > 10000 | > 10000 | 9610 | O=C1C=CC2(C=C1)OCC(=O)N2S(=O)(=O)c1cccc(C(F)(F)F)c1 |  |
| 770 | 2100 | 750 | > 10000 | O=C1C=CC2(C=C1)OCC(=O)N2S(=O)(=O)c1ccc(C(F)(F)F)cc1 |  |
| > 10000 | 2800 | 860 | > 10000 | O=C1C=CC2(C=C1)OCC(=O)N2S(=O)(=O)c1ccc(Cl)cc1 |  |
| 880 | > 10000 | 1620 | > 10000 | COc1ccc(S(=O)(=O)N2C(=O)COC23C=CC(=O)C=C3)cc1 |  |
|  |  |  |  | COc1ccc(/C=C\c2cc(OC)c(OC)c(OC)c2)cc1O [COMBRETASTATIN A4] | Activity (MDA-MB-231 [3]): 20.6%; viability at 10 µM (MDA-MB-231 [4]): 73.7%; Activity (MDA-MB-231 [5]): 8.4%; Activity (MDA-MB-231 [6]): 91.6%; Activity (MDA-MB-231 [7]): 1.8%; Activity (MDA-MB-231 [8]): 4.95%; Activity (MDA-MB-231 [9]): 0%; Activity (MDA-MB-231 [10]): 0.73% |
| 270 | > 10000 | > 10000 | > 10000 | CC1OC2(C=CC(=O)C=C2)N(S(=O)(=O)c2cccs2)C1=O (configuration not stated) |  |
|  |  | 13 |  | CC(=O)O[C@H]1C(=O)[C@@]2(C)[C@H]([C@H](OC(=O)c3ccccc3)[C@]3(O)C[C@H](OC(=O)[C@H](O)[C@@H](NC(=O)c4ccccc4)c4ccccc4)C(C)=C1C3(C)C)[C@]1(OC(C)=O)CO[C@@H]1C[C@@H]2O [PACLITAXEL] |  |
| 7530 | > 10000 | > 10000 | > 10000 | CS(=O)(=O)N1C(=O)COC12C=CC(=O)C=C2 |  |
| 140 | > 10000 | > 10000 | > 10000 | O=C1C=CC2(C=C1)OCC(=O)N2S(=O)(=O)c1ccccc1OC(F)(F)F |  |
